Earlier results as cited in US20180110725A1, “COMPOSITIONS, METHODS AND KITS FOR THE SAFE INHALED DELIVERY OF TARGETED OPIOIDS FOR THE TREATMENT OF PAIN AND ADDICTION” (Somniferum Labs LLC, priority 2016, published 2018).

Experiments:
[1] = room temperature
[2] = target: μ-1 opioid receptor (Homo sapiens, UniProt P35372); conditions: Wittwer and Kern, 2006
[3] = in vivo

Chain of μ-1 opioid receptor (P35372 whole entry): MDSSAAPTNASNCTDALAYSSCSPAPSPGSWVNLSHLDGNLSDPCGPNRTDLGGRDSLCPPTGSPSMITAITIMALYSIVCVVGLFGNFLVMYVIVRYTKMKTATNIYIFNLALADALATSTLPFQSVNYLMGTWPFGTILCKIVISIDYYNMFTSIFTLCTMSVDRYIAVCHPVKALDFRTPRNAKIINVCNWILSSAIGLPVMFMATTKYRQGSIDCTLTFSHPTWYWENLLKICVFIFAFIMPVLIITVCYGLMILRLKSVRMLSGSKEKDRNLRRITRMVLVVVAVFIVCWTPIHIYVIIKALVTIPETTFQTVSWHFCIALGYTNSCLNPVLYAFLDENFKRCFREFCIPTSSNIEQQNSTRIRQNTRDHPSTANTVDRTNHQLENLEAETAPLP

Compound | duration of activity [3] | further results
Br.CN1CC[C@]23c4c5ccc(O)c4O[C@H]2[C@@H](O[C@@H]2O[C@H](C(=O)O)[C@@H](O)[C@H](O)[C@H]2O)C=C[C@H]3[C@H]1C5 [Morphine-6 glucuronide bromide] |  | storage time with little or no degradation [1]: up to 6 years
CN1CC[C@]23c4c5ccc(O)c4O[C@H]2[C@@H](O[C@@H]2O[C@H](C(=O)O)[C@@H](O)[C@H](O)[C@H]2O)C=C[C@H]3[C@H]1C5 [Morphine-6-glucuronide] |  | potency relative to morphine [2]: higher potency than morphine
CC(=O)O.CN1CCC23c4c5ccc(O)c4OC2C(OC2OC(C(=O)O)C(O)C(O)C2O)C=CC3C1C5 (stereo not shown) [morphine-6-glucuronide acetate] | relatively long duration of activity | 
morphine-6-glucuronide sulfate | relatively long duration of activity | 
